Consider nine compounds from patent publication US20230081426A1, “COMPOUNDS AND METHODS FOR KRAS MODULATION AND INDICATIONS THEREFOR” (Plexxikon Inc., priority 2020, published 2023).

The target in assay [1] is T1, G12D-mutant human KRAS (amino acid residues 1-188) (Homo sapiens, UniProt P01116, G12D).
T1 construct: G12D or G12C-mutant human KRAS (amino acid residues 1-188) with FLAG tag; made in house; host or cells: E. coli
Put plainly: KRAS Binding Disruption Assay (AlphaScreen; biotinylated KRpep-2d analogue or RAF1-RBD), G12D. The settings on record: KRAS G12D; geometric mean; read-out: KRAS GMean IC50 (uM) MUTATION: G12D. An outline of the steps: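 AlphaScreen readout: signal falls as compound displaces biotinylated KRpep-2d analogue or RAF1-RBD from mutant KRAS. Both partners at 5-20 nM, 1 h binding at 25° C, then 10 μg/mL Anti-Flag acceptor and streptavidin donor beads for 1 h. IC50 by nonlinear regression of % inhibition.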

Assay [2] addresses T2, G12V-mutant human KRAS (amino acid residues 1-188) (Homo sapiens, UniProt P01116, G12V).
T2 construct: G12V-mutant human KRAS (amino acid residues 1-188) with FLAG tag was purified from E. coli; made in house; host or cells: E. coli
Put plainly: KRAS Binding Competition Assay (AlphaScreen; biotinylated KRpep-2d analogue), G12V. The following applies: geometric mean, read-out: KRAS GMean IC50 (uM) MUTATION: G12V. The method, then: Compound binding disrupts the interaction of KRpep-2d with KRAS, leading to a decrease in Alpha signal.
All assay components were prepared in 20 mM HEPES (pH 7.5), 100 mM NaCl, 5 mM MgCl2, 0.01% Tween-20, and 0.01% BSA. Biotinylated analogues of KRpep-2d were custom synthesized. The binding competition assays were performed using 10 nM of mutant KRAS and 10 nM of biotinylated KRpep-2d analogue. 19 μL of KRAS protein and 4 μL of biotinylated KRpep-2d were added to the wells of a 384-well plate containing 1 μL of various concentrations of test compound or DMSO vehicle. 16 wells containing KRAS, biotinylated KRpep-2d, and 5% DMSO served as high controls. 16 wells containing KRAS only and 5% DMSO served as low controls. Binding reactions were incubated for 1 hour at 25° C., then Anti-Flag Acceptor and Streptavidin Donor Alpha beads were added at a final concentration of 10 μg/mL for an additional hour at room temperature. Alpha signal was read out on a Perkin Elmer Envision HTS instrument. The percentage inhibition at individual compound concentrations relative to high and low controls was calculated. The data were analyzed by using nonlinear regression to generate IC50 values.

On to `CN1CCCC[C@H]1COc1nc(N2C[C@H]3CC[C@@H](C2)N3)c2ccc(-c3cc(O)cc4ccccc34)cc2n1` [P-0079, 4-(4-((1R,5S)-3,8-diazabicyclo[3.2.1]octan-3-yl)-2-(((S)-1-methylpiperidin-2-yl)methoxy)quinazolin-7-yl)naphthalen-2-ol], for which the half-maximal inhibitory concentration (IC50) in assay [1] fell in the range of 0.0001 to 10 µM; in assay [2], 10 to 100 µM.

On to `CCN1CCC[C@H]1COc1nc(N2C[C@H]3CC[C@@H](C2)N3)c2ccc(-c3cc(O)cc4ccccc34)cc2n1` [P-0080, 4-(4-((1R,5S)-3,8-diazabicyclo[3.2.1]octan-3-yl)-2-(((S)-1-ethylpyrrolidin-2-yl)methoxy)quinazolin-7-yl)naphthalen-2-ol], for which the IC50 in assay [1] was in the range of 0.0001 to 10 µM; in assay [2], 10 to 100 µM.

On to `Cc1cccc2cc(O)cc(-c3c(F)cc4c(N5C[C@H]6CC[C@@H](C5)N6)nc(OC[C@@H]5CCCN5C)nc4c3F)c12` [P-0087, 4-(4-((1R,5S)-3,8-diazabicyclo[3.2.1]octan-3-yl)-6,8-difluoro-2-(((S)-1-methylpyrrolidin-2-yl)methoxy)quinazolin-7-yl)-5-methylnaphthalen-2-ol], for which the IC50 in assay [1] and in assay [2] was 0.0001 to 10 µM throughout.

`CC(=O)OCC(=O)N1[C@@H]2CC[C@H]1CN(c1nc(OCC34CCCN3CCC4)nc3cc(-c4cc(O)cc5ccccc45)ccc13)C2` [P-0089, 2-((1R,5S)-3-(7-(3-hydroxynaphthalen-1-yl)-2-((tetrahydro-1H-pyrrolizin-7a(5H)-yl)methoxy)quinazolin-4-yl)-3,8-diazabicyclo[3.2.1]octan-8-yl)-2-oxoethyl acetate]: the IC50 in assay [1] and in assay [2] was 0.0001 to 10 µM throughout.

Take `CCOC(=O)CNC(=O)N1[C@@H]2CC[C@H]1CN(c1nc(OCC34CCCN3CCC4)nc3cc(-c4cc(O)cc5ccccc45)ccc13)C2` [P-0090, ethyl ((1R,5S)-3-(7-(3-hydroxynaphthalen-1-yl)-2-((tetrahydro-1H-pyrrolizin-7a(5H)-yl)methoxy)quinazolin-4-yl)-3,8-diazabicyclo[3.2.1]octane-8-carbonyl)glycinate]: the IC50 in assay [1] and in assay [2] was 0.0001 to 10 µM throughout.

Turning to `CC(=O)NCC(=O)N1[C@@H]2CC[C@H]1CN(c1nc(OCC34CCCN3CCC4)nc3cc(-c4cc(O)cc5ccccc45)ccc13)C2` [P-0091, N-(2-((1R,5S)-3-(7-(3-hydroxynaphthalen-1-yl)-2-((tetrahydro-1H-pyrrolizin-7a(5H)-yl)methoxy)quinazolin-4-yl)-3,8-diazabicyclo[3.2.1]octan-8-yl)-2-oxoethyl)acetamide], the IC50 in assay [1] and in assay [2] was 0.0001 to 10 µM throughout.

Regarding `O=C(CN1CCCS1(=O)=O)N1[C@@H]2CC[C@H]1CN(c1nc(OCC34CCCN3CCC4)nc3cc(-c4cc(O)cc5ccccc45)ccc13)C2` [P-0092, 2-(1,1-dioxidoisothiazolidin-2-yl)-1-((1R,5S)-3-(7-(3-hydroxynaphthalen-1-yl)-2-((tetrahydro-1H-pyrrolizin-7a(5H)-yl)methoxy)quinazolin-4-yl)-3,8-diazabicyclo[3.2.1]octan-8-yl)ethan-1-one], the IC50 in assay [1] and in assay [2] was 0.0001 to 10 µM throughout.

Turning to `NS(=O)(=O)CCC(=O)N1[C@@H]2CC[C@H]1CN(c1nc(OCC34CCCN3CCC4)nc3cc(-c4cc(O)cc5ccccc45)ccc13)C2` [P-0093, 3-((1R,5S)-3-(7-(3-hydroxynaphthalen-1-yl)-2-((tetrahydro-1H-pyrrolizin-7a(5H)-yl)methoxy)quinazolin-4-yl)-3,8-diazabicyclo[3.2.1]octan-8-yl)-3-oxopropane-1-sulfonamide], the IC50 in assay [1] and in assay [2] was 0.0001 to 10 µM throughout.

Turning to `O=C(O)CNC(=O)N1[C@@H]2CC[C@H]1CN(c1nc(OCC34CCCN3CCC4)nc3cc(-c4cc(O)cc5ccccc45)ccc13)C2` [P-0094, ((1R,5S)-3-(7-(3-hydroxynaphthalen-1-yl)-2-((tetrahydro-1H-pyrrolizin-7a(5H)-yl)methoxy)quinazolin-4-yl)-3,8-diazabicyclo[3.2.1]octane-8-carbonyl)glycine], the concentration for half-maximal inhibition (IC50) in assay [1] and in assay [2] was 0.0001 to 10 µM in each case.
